From a melting point compilation (Tetko et al.)

melting point [°C]	Compound
112 to 114	CC(C)CCCC(C)C1CCC2C3CC=C4CC(N(CCCNC(=O)CCNC(=O)CNC(=O)OCC5c6ccccc6-c6ccccc65)C(=O)OC(C)(C)C)CCC4(C)C3CCC12C (stereo not drawn)
146	CC(C)[Si](OC(=O)Cc1cc(I)c(Oc2cc(I)c(O)c(I)c2)c(I)c1)(C(C)C)C(C)C
179 to 181	CC(=O)OCC1OC(OC2C(COC(C)=O)OC(OC3C(COC(C)=O)OC(OCCBr)C(OC(C)=O)C3OC(C)=O)C(OC(C)=O)C2OC(C)=O)C(OC(C)=O)C(OC(C)=O)C1OC(C)=O (stereo not drawn)
210	CSCC[C@H](NC(=O)[C@H](CC(C)C)NC(=O)[C@H](C)NC(=O)[C@@H](N)CC(C)C)C(=O)NCCNc1ccc(NCCNC(=O)[C@H](CCSC)NC(=O)[C@H](CC(C)C)NC(=O)[C@H](C)NC(=O)[C@@H](N)CC(C)C)c2c1C(=O)c1c(O)ccc(O)c1C2=O
87 to 89	CCOC(=O)OC1=C(c2cc(C)ccc2C)C(=O)NC1CC1CCS(=O)(=NC(=O)C(F)(F)F)CC1 (stereo not drawn)
77 to 78	CCCCCCCCCCCCCCCC(=O)OCC1OC(n2cc(F)c(=O)n(C(=O)c3cccc(OC)c3OC)c2=O)CC1OC(=O)CCCCCCCCCCCCCCC (stereo not drawn)
220 to 222	CCCc1nc(OC)c(NC(=O)N2CCN(c3cc(OC)cc(OC)c3)CC2)cc1C(=O)NC(C)C(=O)Nc1cc(CO)cc(Nc2c3ccccc3nc3ccccc23)c1 (stereo not drawn)
90 to 100	CC1CNc2c(cccc2S(=O)(=O)NC(CCCc2cn(C(c3ccccc3)(c3ccccc3)c3ccccc3)cn2)C(=O)N2CCC(C)CC2C(=O)NOCc2ccccc2)C1 (stereo not drawn)
189	CC(=O)N1C(C)(C)CC(OC(=O)C(Cc2cc(C)c(O)c(C(C)(C)C)c2)(Cc2cc(C)c(O)c(C(C)(C)C)c2)C(=O)OC2CC(C)(C)N(C(C)=O)C(C)(C)C2)CC1(C)C
68.5 to 69.5	CCCCCCCCCCCCCCCCCCOC(=O)c1cc(C(C)(C)C)c(O[Si](C)(C)Oc2c(C(C)(C)C)cc(C(=O)OCCCCCCCCCCCCCCCCCC)cc2C(C)(C)C)c(C(C)(C)C)c1
53 to 57	CN1C(C)(C)CC2(CC1(C)C)NC(=O)N(CC(O)COC(=O)CCCCCCCCCCC(=O)OCC(O)CN1C(=O)NC3(CC(C)(C)N(C)C(C)(C)C3)C1=O)C2=O (stereo not drawn)
177 to 178	COc1ccc2c(c1)c(CC(=O)NCC(C)(C)SN=O)c(C)n2C(=O)c1ccc(Cl)cc1
167 to 171	CC(C)c1cc(C(C)C)c(CC(=O)NS(=O)(=O)Oc2c(C(C)C)cc(C(=O)[C@H](CCCCNC(=O)OC(C)(C)C)NC(=O)OC(C)(C)C)cc2C(C)C)c(C(C)C)c1
189 to 194	CCCCN(c1nc(N(CCCC)C2CC(C)(C)N(OC3CCCCC3)C(C)(C)C2)nc(N(CCCC)C2CC(C)(C)N(OC3CCCCC3)C(C)(C)C2)n1)C1CC(C)(C)N(OC2CCCCC2)C(C)(C)C1
140 to 141	CC(C)n1c(CC[C@@H](O)C[C@@H](O)CC(=O)O)c(-c2ccc(F)cc2)c(-c2ccccc2)c1C(=O)NCc1cccc(C(=O)O)c1

More lines, now with the values behind:

Compound	melting point [°C]
CN1CCCC1=NC(=O)Nc1ccc(OCc2ccccc2)cc1	140 to 142
CC(=O)Oc1ccc(-c2cnc(N(S(=O)(=O)Cc3ccc(I)cc3)S(=O)(=O)Cc3ccc(I)cc3)c(Cc3ccccc3)n2)cc1	166 to 167
CC1(C)CC(O)(C#N)CC(C)(C)N1	129 to 132
CCCCCCCCCCCCCCCCCCCCCCCCCC(=O)NC(COC1OC(CO)C(O)C(O)C1O)C(O)C(O)CCCCCCCCCCCCCC (stereo not drawn)	190
CC(C)CCCC(C)C1CCC2C3CC=C4CC(N(CCCNC(=O)CCCCCNc5ccc([N+](=O)[O-])cc5[N+](=O)[O-])S(=O)(=O)c5ccccc5[N+](=O)[O-])CCC4(C)C3CCC12C (stereo not drawn)	80 to 82
Cc1ccc(S(=O)(=O)N2CCN(S(=O)(=O)c3ccc(C)cc3)CC(Cc3ccc(O)cc3)N(S(=O)(=O)c3ccc(C)cc3)N(S(=O)(=O)c3ccc(C)cc3)CC2)cc1 (stereo not drawn)	192 to 193
CCC(CO)Sc1nc(Nc2ccc(S(C)(=N)=O)cc2)ncc1Br (mixture of isomers)	175 to 180
C=CC(=O)OCCCCCCCCCCCOc1ccc(-c2nc(-c3ccc(OCCCCCCCCCCCOC(=O)C=C)cc3O)nc(-c3ccc(OCCCCCCCCCCCOC(=O)C=C)cc3O)n2)c(O)c1	72.8
Cc1nc(-c2cncc(F)c2)sc1NC(=O)C(C)CS(C)(=O)=NC#N (stereo not drawn)	75 to 81
NC(=O)c1cc(-c2ccccc2)c(=O)n2c1-c1sccc1CC2	281 to 282
CCCCCCCS(=O)(=O)c1cc2c3cc(S(=O)(=O)CCCCCCC)c(S(=O)(=O)CCCCCCC)cc3c3cc(S(=O)(=O)CCCCCCC)c(S(=O)(=O)CCCCCCC)cc3c2cc1S(=O)(=O)CCCCCCC	256 to 258
CCCc1[nH]c2ccccc2c1C1(c2ccc(N(CC)CC)cc2OCCOCCOc2cc(N(CC)CC)ccc2C2(c3c(CCC)[nH]c4ccccc34)OC(=O)c3ccccc32)OC(=O)c2ccccc21 (stereo not drawn)	191 to 194
O=C(CCS(=O)(=O)CCCl)OCC(COC(=O)CCS(=O)(=O)CCCl)(COC(=O)CCS(=O)(=O)CCCl)COC(=O)CCS(=O)(=O)CCCl	68 to 69
Cc1cc(C)c(N2c3ccccc3S(=O)(=O)c3cc(C=Cc4ccc(-c5ccc(C=Cc6ccc7c(c6)S(=O)(=O)c6ccccc6N7c6c(C)cc(C)cc6C)cc5)cc4)ccc32)c(C)c1	> 350
C1CCC2NCCC2C1 (stereo not drawn)	85
CCCCCCCCCCCCCCCCCCOc1cc(OCCCCCc2cccc(OCc3ccccc3)c2OCc2ccccc2)cc(N(CC(=O)O)CC(=O)O)c1	79 to 81
CC(C)[C@H](NC(=O)N(C)Cc1ccccn1)C(=O)N[C@@H](Cc1ccccc1)C[C@H](OC(=O)CN(C)C)[C@H](Cc1ccccc1)NC(=O)[C@@H](NC(=O)N(C)Cc1ccccn1)C(C)C	109 to 111
Cc1ccc(-c2c(-c3ccc(S(N)(=O)=O)cc3)[nH]c3ccccc23)cc1C	251 to 253
NC(=NC(=O)OCc1ccc([N+](=O)[O-])cc1)N(CCSSCCN(C(=O)OCc1ccc([N+](=O)[O-])cc1)C(N)=NC(=O)OCc1ccc([N+](=O)[O-])cc1)C(=O)OCc1ccc([N+](=O)[O-])cc1	165
[C-]#[N+]CS(=O)c1ccccn1 (stereo not drawn)	91 to 93
CC(=O)OCC=C(C)CCC=C(C)CCC=C(C)CCC=C(C)CCC=C(C)CCC=C(C)CCC=C(C)CCC=C(C)CCC=C(C)CCC=C(C)CCC=C(C)C	36 to 37
Nc1ncnc2c1c(I)cn2COC(O)CCO (stereo not drawn)	177 to 178
Ic1cc(I)c(OCCOc2c(I)cc(I)cc2I)c(I)c1	288 to 289
CCC1(CC)c2cc(-c3nc4ccccc4s3)ccc2-c2ccc(N(c3ccc4c(c3)C(CC)(CC)c3cc(-c5nc6ccccc6s5)ccc3-4)C3CCCCC3)cc21	262 to 264
NCCC(N)c1ccccc1C(F)(F)F (stereo not drawn)	213 to 217
CCCCCCCCCCCCCCCCCCOC(=O)CSCc1cc(CSCC(=O)OCCCCCCCCCCCCCCCCCC)c(O)c(CSCC(=O)OCCCCCCCCCCCCCCCCCC)c1	70 to 71
Nc1n[nH]cc1C(=O)O	135
CC(=O)OC1C(O)C(C)OC(OC2C(OC(=O)C3CCC4C(C3)OC3(CC(OC(=O)C=Cc5ccccc5)C(C)CO3)C43CO3)OC(C)C(O)C2OC(C)=O)C1O (stereo not drawn)	125 to 127
